Reference: patent US20080171737A1 (Wyeth, priority 2006, published 2008)
pIC50: −log10 of the molar value. Where a name gives a salt, the structure may show the parent alone.

target: T1, human hNET (Homo sapiens, UniProt P23975); assay: Functional norepinephrine reuptake assay, Procedure B (6,000 cells/well); assay type: cell-based; settings: MDCK-Net6 cells, 6,000 cells/well, 16 nM 3H-norepinephrine; read-out: Procedure B hNET uptake IC50
T1 construct: expressed in transfected cells; host or cells: MDCK-Net6 (MDCK cells stably transfected with hNET)
Procedure, shortened: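 MDCK cells stably expressing human NET, 6,000 cells/well, in HEPES-buffered saline pH 7.4 with ascorbic acid and 1 μM pargyline; compound preincubated 5 min at 37° C. ^3H norepinephrine uptake counted by scintillation; non-specific defined with 20 μM desipramine. IC50 from variable-slope sigmoidal nonlinear fit.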

T1 sequence (P23975 whole entry): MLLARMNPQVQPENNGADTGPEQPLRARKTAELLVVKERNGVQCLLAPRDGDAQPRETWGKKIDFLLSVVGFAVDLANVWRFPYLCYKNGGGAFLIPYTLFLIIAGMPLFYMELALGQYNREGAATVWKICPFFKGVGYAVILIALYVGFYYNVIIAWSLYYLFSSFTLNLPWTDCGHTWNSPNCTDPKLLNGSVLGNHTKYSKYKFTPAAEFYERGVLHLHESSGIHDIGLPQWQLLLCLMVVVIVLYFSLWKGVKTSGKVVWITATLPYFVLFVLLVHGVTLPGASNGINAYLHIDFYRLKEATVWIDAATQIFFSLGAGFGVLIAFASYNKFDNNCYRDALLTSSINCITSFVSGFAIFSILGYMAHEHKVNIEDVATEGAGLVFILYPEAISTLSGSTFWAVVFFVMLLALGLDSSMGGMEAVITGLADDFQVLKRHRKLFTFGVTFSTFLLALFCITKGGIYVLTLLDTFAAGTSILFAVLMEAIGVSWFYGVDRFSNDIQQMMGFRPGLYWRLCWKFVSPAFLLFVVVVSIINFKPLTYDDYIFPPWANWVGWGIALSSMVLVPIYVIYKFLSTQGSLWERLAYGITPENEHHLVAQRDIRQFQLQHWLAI

Row | Structure (SMILES) | pIC50
1 | CNCCCC1Oc2cc(Cl)ccc2N(c2ccccc2)S1(=O)=O (stereo not drawn) [Example 45, 3-(6-chloro-2,2-dioxido-1-phenyl-1H-4,2,1-benzoxathiazin-3-yl)-N-methylpropan-1-amine] | 6.94
2 | CNCCCC1Oc2c(F)cccc2N(c2ccccc2)S1(=O)=O (stereo not drawn) [Example 47, 3-(5-fluoro-2,2-dioxido-1-phenyl-1H-4,2,1-benzoxathiazin-3-yl)-N-methylpropan-1-amine] | 6.37
3 | CNCCCC1Oc2cccc(C)c2N(c2ccccc2)S1(=O)=O (stereo not drawn) [Example 49, N-methyl-3-(8-methyl-2,2-dioxido-1-phenyl-1H-4,2,1-benzoxathiazin-3-yl)propan-1-amine] | 6.05
4 | CNCCCC1Oc2ccc(C)cc2N(c2ccccc2)S1(=O)=O (stereo not drawn) [Example 50, N-methyl-3-(7-methyl-2,2-dioxido-1-phenyl-1H-4,2,1-benzoxathiazin-3-yl)propan-1-amine] | 6.94
5 | CNCCCC1Oc2cc(C)ccc2N(c2ccccc2)S1(=O)=O (stereo not drawn) [Example 51, N-methyl-3-(6-methyl-2,2-dioxido-1-phenyl-1H-4,2,1-benzoxathiazin-3-yl)propan-1-amine] | 6.60
6 | CNCCCC1Oc2cc(OC)ccc2N(c2ccccc2)S1(=O)=O (stereo not drawn) [Example 52, 3-(6-methoxy-2,2-dioxido-1-phenyl-1H-4,2,1-benzoxathiazin-3-yl)-N-methylpropan-1-amine] | 6.22
7 | CNCCCC1Oc2cc3ccccc3cc2N(c2ccccc2)S1(=O)=O (stereo not drawn) [Example 55, 3-(2,2-dioxido-1-phenyl-1H-naphtho[2,3-e][1,3,4]oxathiazin-3-yl)-N-methylpropan-1-amine hydrochloride] | 7.32
8 | CNCCCC1Oc2ccccc2N(c2cccnc2)S1(=O)=O (stereo not drawn) [Example 56, 3-(2,2-dioxido-1-pyridin-3-yl-1H-4,2,1-benzoxathiazin-3-yl)-N-methylpropan-1-amine] | 6.46
9 | CN(CCCC1Oc2ccccc2N(c2ccccc2)S1(=O)=O)Cc1ccccc1 (stereo not drawn) [Example 58, N-benzyl-3-(2,2-dioxido-1-phenyl-1H-4,2,1-benzoxathiazin-3-yl)-N-methylpropan-1-amine hydrochloride] | 6.09
10 | CNCCCC1Sc2ccccc2N(c2cccc(C)c2)S1(=O)=O (stereo not drawn) [Example 60, N-methyl-3-[1-(3-methylphenyl)-2,2-dioxido-1H-2,4,1-benzodithiazin-3-yl]propan-1-amine Hydrochloride] | 6.33
11 | CNCCCC1Sc2ccccc2N(c2cccc(OC)c2)S1(=O)=O (stereo not drawn) [Example 62, 3-[1-(3-methoxyphenyl)-2,2-dioxido-1H-2,4,1-benzodithiazin-3-yl]-N-methylpropan-1-amine Hydrochloride] | 6.47
12 | CNCCCC1Sc2ccccc2N(c2ccc(F)cc2)S1(=O)=O (stereo not drawn) [Example 64, 3-[1-(4-fluorophenyl)-2,2-dioxido-1H-2,4,1-benzodithiazin-3-yl]-N-methylpropan-1-amine Hydrochloride] | 6.00
13 | CNCCCC1Sc2ccccc2N(c2cccc(Cl)c2)S1(=O)=O (stereo not drawn) [Example 66, 3-[1-(3-chlorophenyl)-2,2-dioxido-1H-2,4,1-benzodithiazin-3-yl]-N-methylpropan-1-amine Hydrochloride] | 5.69
14 | CNCCCC1Oc2cc3ccccc3cc2N(c2ccc(C)cc2)S1(=O)=O (stereo not drawn) [Example 69, N-methyl-3-[1-(4-methylphenyl)-2,2-dioxido-1H-naphtho[2,3-e][1,3,4]oxathiazin-3-yl]propan-1-amine Hydrochloride] | 6.13
15 | CNCCCC1Cc2ccccc2N(c2ccccc2F)S1(=O)=O (stereo not drawn) [Example 73, 3-[1-(2-fluorophenyl)-2,2-dioxido-3,4-dihydro-1H-2,1-benzothiazin-3-yl]-N-methylpropan-1-amine Hydrochloride] | 7.75
16 | O=S1(=O)C(CCCN2CCNCC2)Oc2ccccc2N1c1ccccc1 (stereo not drawn) [Example 76, 1-phenyl-3-(3-piperazin-1-ylpropyl)-1H-4,2,1-benzoxathiazine2,2-dioxide Dihydrochloride] | 5.30
17 | CN(C)CCCC1Oc2ccccc2N(c2ccccc2)S1(=O)=O (stereo not drawn) [Example 80, 3-(2,2-dioxido-1-phenyl-1H-4,2,1-benzoxathiazin-3-yl)-N,N-dimethylpropan-1-amine hydrochloride] | 5.38
18 | CN(CCCC1Oc2ccccc2N(c2ccccc2)S1(=O)=O)C1CCCCC1 (stereo not drawn) [Example 85, N-[3-(2,2-dioxido-1-phenyl-1H-4,2,1-benzoxathiazin-3-yl)propyl]-N-methylcyclo hexanamine Hydrochloride] | 5.72

The next lines start with the values.

Row | pIC50 | Structure (SMILES)
19 | 7.03 | CNCCCC1Oc2cc(F)ccc2N(c2ccccc2)S1(=O)=O (stereo not drawn) [Example 46, 3-(6-fluoro-2,2-dioxido-1-phenyl-1H-4,2,1-benzoxathiazin-3-yl)-N-methylpropan-1-amine]
20 | 6.20 | CNCCCC1Oc2cccc(F)c2N(c2ccccc2)S1(=O)=O (stereo not drawn) [Example 48, 3-(8-fluoro-2,2-dioxido-1-phenyl-1H-4,2,1-benzoxathiazin-3-yl)-N-methylpropan-1-amine]
21 | 6.73 | CNCCCC1Oc2ccc(Cl)cc2N(c2ccccc2)S1(=O)=O (stereo not drawn) [Example 53, 3-(7-chloro-2,2-dioxido-1-phenyl-1H-4,2,1-benzoxathiazin-3-yl)-N-methylpropan-1-amine]
22 | 6.39 | CNCCCC1Oc2ccc(-c3ccccc3)cc2N(c2ccccc2)S1(=O)=O (stereo not drawn) [Example 54, 3-(2,2-dioxido-1,7-diphenyl-1H-4,2,1-benzoxathiazin-3-yl)-N-methylpropan-1-amine]
23 | 6.91 | CNCCCC1Sc2ccccc2N(c2ccccc2)S1(=O)=O (stereo not drawn) [Example 59, 3-(2,2-dioxido-1-phenyl-1H-2,4,1-benzodithiazin-3-yl)-N-methylpropan-1-amine Hydrochloride]
24 | 7.09 | CNCCCC1Sc2ccccc2N(c2cccc(F)c2)S1(=O)=O (stereo not drawn) [Example 61, 3-[1-(3-fluorophenyl)-2,2-dioxido-1H-2,4,1-benzodithiazin-3-yl]-N-methylpropan-1-amine hydrochloride]
25 | 6.81 | CNCCCC1Sc2ccccc2N(c2ccc(C)cc2)S1(=O)=O (stereo not drawn) [Example 63, N-methyl-3-[1-(4-methylphenyl)-2,2-dioxido-1H-2,4,1-benzodithiazin-3-yl]propan-1-amine Hydrochloride]
26 | 5.82 | CNCCCC1Sc2ccccc2N(c2ccc(Cl)cc2)S1(=O)=O (stereo not drawn) [Example 67, 3-[1-(4-chlorophenyl)-2,2-dioxido-1H-2,4,1-benzodithiazin-3-yl]-N-methylpropan-1-amine Hydrochloride]
27 | 6.33 | CNCCCC1Sc2ccccc2N(c2ccc(F)c(Cl)c2)S1(=O)=O (stereo not drawn) [Example 68, 3-[1-(3-chloro-4-fluorophenyl)-2,2-dioxido-1H-2,4,1-benzodithiazin-3-yl]-N-methylpropan-1-amine Hydrochloride]
28 | 6.92 | CNCCCC1Oc2cc3ccccc3cc2N(c2cccc(F)c2)S1(=O)=O (stereo not drawn) [Example 70, 3-[1-(3-fluorophenyl)-2,2-dioxido-1H-naphtho[2,3-e][1,3,4]oxathiazin-3-yl]-N-methylpropan-1-amine Hydrochloride]

same assay, conditions: MDCK-Net6 cells, 6,000 cells/well; Conc 6000 nM (6 μM); hydrochloride

Row | Procedure B hNET uptake (% inhibition) [%] | Structure (SMILES)
29 | 35 | CN1CCN(CCC2Oc3ccccc3N(c3ccccc3)S2(=O)=O)CC1 (stereo not drawn) [Example 87, 3-[2-(4-Methyl-piperazin-1-yl)-ethyl]-1-phenyl-1H-benzo[1,3,4]oxathiazine 2,2-dioxide hydrochloride]

same assay, conditions: MDCK-Net6 cells, 6,000 cells/well; Conc 6000 nM (6 μM); read-out: Procedure B hNET uptake (% inhibition)

Row | Structure (SMILES) | inhibition at 6 µM [%]
30 | CNCCCC1Oc2ccccc2N(c2cnc3ccccc3c2)S1(=O)=O (stereo not drawn) [Example 57, 3-(2,2-dioxido-1-quinolin-3-yl-1H-4,2,1-benzoxathiazin-3-yl)-N-methylpropan-1-amine] | 41
31 | CC1CN(CCC2Oc3ccccc3N(c3ccccc3)S2(=O)=O)CC(C)N1 (stereo not drawn) [Example 79, 3-[2-(3,5-dimethylpiperazin-1-yl)ethyl]-1-phenyl-1H-4,2,1-benzoxathiazine 2,2-dioxide hydrochloride] | 21
32 | CCN(CC)CCCC1Oc2ccccc2N(c2ccccc2)S1(=O)=O (stereo not drawn) [Example 82, 3-(2,2-dioxido-1-phenyl-1H-4,2,1-benzoxathiazin-3-yl)-N,N-diethylpropan-1-amine hydrochloride] | 47
33 | CN(CCCC1Oc2ccccc2N(c2ccccc2)S1(=O)=O)C1CCCCC1 (stereo not drawn) [Example 85, N-[3-(2,2-dioxido-1-phenyl-1H-4,2,1-benzoxathiazin-3-yl)propyl]-N-methylcyclo hexanamine Hydrochloride] | 62

Next, values leading:

Row | inhibition at 6 µM [%] | Structure (SMILES)
34 | 58 | CNCCCC1Sc2ccccc2N(c2ccc(OC)cc2)S1(=O)=O (stereo not drawn) [Example 65, 3-[1-(4-methoxyphenyl)-2,2-dioxido-1H-2,4,1-benzodithiazin-3-yl]-N-methylpropan-1-amine hydrochloride]
35 | 33 | O=S1(=O)C(CCN2CCCNCC2)Oc2ccccc2N1c1ccccc1 (stereo not drawn) [Example 77, 3-[2-(1,4-diazepan-1-yl)ethyl]-1-phenyl-1H-4,2,1-benzoxathiazine-2,2-dioxide Dihydrochloride]
36 | 45 | O=S1(=O)C(CCN2CCCCC2)Oc2ccccc2N1c1ccccc1 (stereo not drawn) [Example 78, 1-phenyl-3-(2-piperidin-1-ylethyl)-1H-4,2,1-benzoxathiazine 2,2-dioxide hydrochloride]
37 | 27 | CCN(C)CCCC1Oc2ccccc2N(c2ccccc2)S1(=O)=O (stereo not drawn) [Example 81, 3-(2,2-dioxido-1-phenyl-1H-4,2,1-benzoxathiazin-3-yl)-N-ethyl-N-methylpropan-1-amine hydrochloride]
38 | 41 | CCN(CCO)CCCC1Oc2ccccc2N(c2ccccc2)S1(=O)=O (stereo not drawn) [Example 83, 2-{[3-(2,2-dioxido-1-phenyl-1H-4,2,1-benzoxathiazin-3-yl)propyl](ethyl)amino}ethanol hydrochloride]
39 | 27 | CC(C)N(C)CCCC1Oc2ccccc2N(c2ccccc2)S1(=O)=O (stereo not drawn) [Example 84, 3-(2,2-dioxido-1-phenyl-1H-4,2,1-benzoxathiazin-3-yl)-N-isopropyl-N-methylpropan-1-amine Hydrochloride]
